Source: PubChem BioAssay (NCI)
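All cell lines were grown in 96-well plates and treated with compound for 48 hours. At the TGI there is no net growth.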

Assays:
Assay in all cases: inhibition of tumour cell growth, NCI panel, 48 h
786-0 renal = tested on: 786-0 renal
A498 renal = tested on: A498 renal
A549 NSCLC = tested on: A549 NSCLC
ACHN renal = tested on: ACHN renal
BT-549 breast = tested on: BT-549 breast
CAKI-1 renal = tested on: CAKI-1 renal
CCRF-CEM leukemia = tested on: CCRF-CEM leukemia
COLO 205 colon = tested on: COLO 205 colon
DU-145 prostate = tested on: DU-145 prostate
EKVX NSCLC = tested on: EKVX NSCLC
HCC-2998 colon = tested on: HCC-2998 colon
HCT-116 colon = tested on: HCT-116 colon
HCT-15 colon = tested on: HCT-15 colon
HL-60(TB) leukemia = tested on: HL-60(TB) leukemia
HOP-62 NSCLC = tested on: HOP-62 NSCLC
HOP-92 NSCLC = tested on: HOP-92 NSCLC
HS 578T breast = tested on: HS 578T breast
HT29 colon = tested on: HT29 colon
IGROV1 ovarian = tested on: IGROV1 ovarian
K-562 leukemia = tested on: K-562 leukemia
KM12 colon = tested on: KM12 colon
LOX IMVI melanoma = tested on: LOX IMVI melanoma
M14 melanoma = tested on: M14 melanoma
MALME-3M melanoma = tested on: MALME-3M melanoma
MCF7 breast = tested on: MCF7 breast
MDA-MB-435 = tested on: MDA-MB-435
MDA-N = tested on: MDA-N
MOLT-4 leukemia = tested on: MOLT-4 leukemia
NCI-H226 lung = tested on: NCI-H226 lung
NCI-H23 lung = tested on: NCI-H23 lung
NCI-H460 lung = tested on: NCI-H460 lung
NCI-H522 lung = tested on: NCI-H522 lung
NCI/ADR-RES ovarian = tested on: NCI/ADR-RES ovarian
OVCAR-3 ovarian = tested on: OVCAR-3 ovarian
OVCAR-4 ovarian = tested on: OVCAR-4 ovarian
OVCAR-5 ovarian = tested on: OVCAR-5 ovarian
OVCAR-8 ovarian = tested on: OVCAR-8 ovarian
PC-3 prostate = tested on: PC-3 prostate
RPMI-8226 leukemia = tested on: RPMI-8226 leukemia
RXF 393 renal = tested on: RXF 393 renal
SF-268 CNS = tested on: SF-268 CNS
SF-295 CNS = tested on: SF-295 CNS
SF-539 CNS = tested on: SF-539 CNS
SK-MEL-2 melanoma = tested on: SK-MEL-2 melanoma
SK-MEL-28 melanoma = tested on: SK-MEL-28 melanoma
SK-MEL-5 melanoma = tested on: SK-MEL-5 melanoma
SN12C renal = tested on: SN12C renal
SNB-19 CNS = tested on: SNB-19 CNS
SNB-75 CNS = tested on: SNB-75 CNS
SR leukemia = tested on: SR leukemia
SW-620 colon = tested on: SW-620 colon
T-47D breast = tested on: T-47D breast
TK-10 renal = tested on: TK-10 renal
U251 CNS = tested on: U251 CNS
UACC-257 melanoma = tested on: UACC-257 melanoma
UACC-62 melanoma = tested on: UACC-62 melanoma
UO-31 renal = tested on: UO-31 renal
SK-OV-3 ovarian = tested on: SK-OV-3 ovarian

Measured: TGI

O=C(O)C1CCCN1C(=O)c1cc(Cl)ccn1 (configuration not stated)
not listed: SK-OV-3 ovarian
> 100 µM: all other assays above

CC1(C)C(OC(=O)c2ccccc2)C[C@]23CCC[C@](C)(C[C@@H](O)C12)C3 (some centres not stated)
29.8 µM: SK-MEL-28 melanoma
34 µM: NCI-H23 lung
78.9 µM: OVCAR-3 ovarian
32.2 µM: MDA-MB-435
40.4 µM: HS 578T breast
33.7 µM: MOLT-4 leukemia
40.8 µM: CAKI-1 renal
32.1 µM: KM12 colon
> 100 µM: HL-60(TB) leukemia | RPMI-8226 leukemia | SK-OV-3 ovarian | SR leukemia
37.4 µM: CCRF-CEM leukemia
31.3 µM: NCI-H460 lung
25.8 µM: SK-MEL-5 melanoma
38.5 µM: MALME-3M melanoma
36.8 µM: EKVX NSCLC | MDA-N
46.6 µM: OVCAR-4 ovarian
34.1 µM: A549 NSCLC
35.8 µM: SK-MEL-2 melanoma
29 µM: UACC-62 melanoma
36.2 µM: OVCAR-8 ovarian
37.5 µM: NCI-H226 lung
30.3 µM: BT-549 breast
52.4 µM: DU-145 prostate
34.6 µM: SN12C renal
34.8 µM: SNB-75 CNS
35.5 µM: UACC-257 melanoma
35.6 µM: UO-31 renal
30.6 µM: MCF7 breast
37.1 µM: HCT-15 colon
28.1 µM: PC-3 prostate | SF-295 CNS
31.9 µM: ACHN renal
38.9 µM: LOX IMVI melanoma | M14 melanoma
63.4 µM: HOP-62 NSCLC
43.7 µM: T-47D breast
31.4 µM: HT29 colon | NCI-H522 lung
91.6 µM: TK-10 renal
32.5 µM: HOP-92 NSCLC
59.5 µM: SF-268 CNS
46.7 µM: NCI/ADR-RES ovarian
29.1 µM: HCT-116 colon
33.6 µM: COLO 205 colon
28.6 µM: OVCAR-5 ovarian
35.7 µM: 786-0 renal
47.8 µM: SNB-19 CNS
36.3 µM: IGROV1 ovarian
27.9 µM: SW-620 colon
54.8 µM: K-562 leukemia

C/C=N\n1c(C)n[nH]c1=O
not listed: SK-OV-3 ovarian
> 100 µM: all other assays above
